Data from US8022178B2, “Modified self-assembling peptides” (Massachusetts Institute of Technology, priority 2006, dated 2011).

Legend:
[1] = test system: chick Chorioallantoic Membrane; experiment: Chorioallantoic Membrane (CAM) assay of angiogenesis; format: in vivo, chicken; settings: hydrogel placed Day 8, histology Day 12, FIG. 30
Protocol: In vivo study of angiogenesis was performed using Chorioallantoic Membrane (CAM) assay. At Day 8 of fertilized chicken egg incubation, hydrogels of 10 mm diameter with 1 mm thickness were transferred to chick Chorioallantoic Membrane. The hydrogels were selected from Table 19 and gels were formed before the transfer. On Day 12, CAMs were collected for histology. The angiogenesis inside and below the hydrogel were evaluated by histological cross section.

[2] = test system: HUVEC (human umbilical vein endothelial cells); experiment: HUVEC cultured 2-dimensionally on hydrogels: cell attachment and morphology; format: cell-based
Protocol: The effect of functional modified peptide matrix to HUVEC (human umbilical vein endothelial cells) was evaluated by culturing cells 2-dimensionally on the gel.
(§1) The peptide solutions shown in Table 19 were loaded in the culture inserts (10 mm diameter, Millicell-CM, Millipore) and gels were formed using cell culture medium (EGM-2-MV, Camblex). Collagen-1 and Matrigel were used as control matrices. HUVEC (human umbilical vein endothelial cells) were plated at 8×10^4 cells on the inserts and cultured up to 7 Days.

[3] = test system: HUVEC (human umbilical vein endothelial cells); experiment: HUVEC DNA amount in the well after three days culture; format: cell-based; settings: compared to RAD, FIG. 25
Protocol: as §1
The amount of DNA in the well after three days culture was evaluated in selected hydrogels of Table 19. The DNA amount is proportional to the number of the cells.

[4] = test system: HUVEC (human umbilical vein endothelial cells); experiment: Endothelial cell migration from beads to hydrogels; format: cell-based; settings: Day 2; compared to RAD; FIGS. 26-27
Protocol: Endothelial cell migration effect on the hydrogels was evaluated. The endothelial cell migration is important when the vessel has in-growth into the matrix. HUVEC (human umbilical vein endothelial cells) were seeded on Collagen coated Dextran beads (Cytodex3, microcarrier beads, Sigma), then transferred to different hydrogels which selected from Table 19.
FIGS. 26A-26F show the fluorescence microscopy image of beads on the peptide matrix at Day 1 and Day 2 after placing the beads. […] The white bar represents 100 um. On the Day 1, most of the cells stayed on the beads. On the Day 2, the cells were well migrated from the beads to Collagen, PRGmx and KLTmx gel compared to RAD.
The cells are counted in fluorescence microscopy image. The above observation were also confirmed in the graph.

“COL: Collagen-1 gel (0.25%); Collagen I gel from rat tail (BD Bioscience), control matrix” was tested, and the “angiogenesis inside and below the hydrogel” value [1] was “no angiogenesis both inside and below the hydrogel”, the Cell attachment ([2]; HUVEC cultured on hydrogels) was “++++ (++++: near confluence(>70%))” and the “cell attachment compared to RAD” value ([2]; HUVEC on hydrogels for two days, confocal, FIGS. 24A-24M) was “higher cell attachment”. For the same substance, the “DNA amount in the well” value [3] was “statically higher” and the “cell migration from the beads to the hydrogel” value [4] was “well migrated”.
